Source: patent US9040579B2, “Combination therapy using coenzyme Q10 and a caffeic acid-derived ester” (priority 2010, dated 2015)

System: Mice that over-expressed human Cu,Zn superoxide dismutase-1 mutant G93A
Experiment: Survival of ALS model mice treated by oral gavage
Assay type: in vivo
Conditions: G93A SOD1 mice; single-agent control treatment; untreated mice 125 days
Method: Compound 1 was dissolved in a PEG solvent (30% PEG 400, 5% EtOH, 5% DMSO, 1 mg/ml). The solution was mixed with Coenzyme Q10 in liposome (5 mg/ml, NuNaturals).
Mice that over-expressed human Cu,Zn superoxide dismutase-1 mutant G93A to develop a delayed and progressive motor neuron disease similar to human amyotrophic lateral sclerosis (ALS) were used in this assay.
The mixture of Compound 1 and Coenzyme Q10 were administered by gavage (oral) once a day (final dosage: 10 mg/kg of Compound 1 and 50 mg/kg of Coenzyme Q10) to 5 mice. The average survival time for the mice was 156 days.
As control, mice were subject to Compound 1 treatment, Coenzyme Q10 treatment, or no Compound 1 or Coenzyme Q10 treatment. The average survival time was 138 days for Compound 1-treated mice, 129 days for Coenzyme Q10 treatment mice, and 125 days for no Compound 1 or Coenzyme Q10-treated mice.

## COC1=C(OC)C(=O)C(C/C=C(\C)CC/C=C(\C)CC/C=C(\C)CC/C=C(\C)CC/C=C(\C)CC/C=C(\C)CC/C=C(\C)CC/C=C(\C)CC/C=C(\C)CCC=C(C)C)=C(C)C1=O [Coenzyme Q10]
  average survival time: 129 days

## O=C(/C=C/c1ccc(O)c(O)c1)OCCc1ccccc1 [Compound 1, caffeic acid phenethyl ester]
  average survival time: 138 days
